In article PMC9415015, “CK2 Inhibition and Antitumor Activity of 4,7-Dihydro-6-nitroazolo[1,5-a]pyrimidines” (Molecules, 2022):
Read-outs that look alike come from different tables or passages of the source.

How the values were obtained:
human recombinant CK2α1 = target: T1, human recombinant CK2α1 (Homo sapiens, UniProt P68400); experiment: CK2 ADP-Glo kinase assay; type: biochemical; conditions: for Effect on CK2 activity in initial screening (in words): initial screening at 50 μM; for inhibition at 50 µM: read-out: CK2 Inhibition at 50 μM, m ± SD (%)
T1 construct: purchased Promega V4482
Method: Kinase activity was determined using the enzyme system CK2α1 (Promega V4482, Madison, WI, USA) and the ADP-Glo^TM kit (Promega V9101, Madison, WI, USA) in white 96-well plates (Nunc U96 Microwell 267350, Denmark). The reaction was carried out using 50 ng/well of N-GST labeled human recombinant CK2α1, 0.1 µg/µL bovine casein as a substrate, 10 μM ATP in 40 mM Tris buffer solution (pH 7.50) containing 20 mM MgCl2, 0.1 mg/mL of BSA, and 50 μM of DTT. Test compounds were added to 1.25% DMSO (final concentration 0.25%) and preincubated with kinase for 10 min. The reaction was carried out for 60 min at 25 °C in a thermostatically controlled PST-60HL shaker (Biosan. […], Latvia). ATP-dependent luminescence was measured at an integration time of 1000 ms using the Infinite M200 PRO microplate reader (Tecan. Austria). The ATP-competitive inhibitor Staurosporin (CAS 62996–74-1, Alfa Aesar J62837, 99+%) was used as a positive control. The experiments were performed in two parallels.

Hos cells = experiment: MTT test, osteosarcoma cells; type: cell-based, human; conditions: for Cytotoxicity index IC50 ± SE, Hos: MTT, 72 h incubation; for Selectivity ratio SR (HOS): normal/cancer cell (Hek-293 vs Hos)
Method: (§1) The studies were carried out on cultured cells of human glioblastoma (A-172, ATCC CRL 1620), human osteosarcoma (Hos, ATCC CRL 1543), human embryonic rhabdomyosarcoma (Rd, ATCC CRL 136), and human embryonic kidney 293 cells (Hek-293, ATCC CRL 1573) obtained from the Shared research facility “Vertebrate cell culture collection” (Institute of Cytology RAS, Saint-Petersburg, Russia). The cells were cultured using DMEM / F-12 medium containing 10% fetal bovine serum at 37°C, 5% CO2, and 98% humidity. Subculturing was performed using 0.25% trypsin solution when the culture reached ≥90% confluency.
(§2) The compounds were dissolved in DMSO. The solutions were diluted with DMEM/F-12 culture medium with 10% fetal bovine serum to the studied concentrations: 8, 16, 32, 64, 128, 256, 512, and 1024 µM. […] Cisplatin (cPt) was used as a positive control.
(§3) Cells were seeded in 96-well plates at a concentration of 4 × 10^3 cells per well. After 24 h, test compounds were added to the wells in a given concentration range. Then the cells were incubated for 72 h, after which a solution of MTT (3-(4,5-dimethyl-2-thiazolyl)-2,5-diphenyl-2H-tetrazolium bromide) was added to the cultures at 20 µL (5 mg/mL) to the well. After 2.5 h, the medium was removed from the wells and 200 µL of a mixture of DMSO/i-PrOH 1/1 was added. Optical density was measured on a plate spectrophotometer at a wavelength of 570 nm.
(§4) Statistical data processing was carried out in the RStudio program (Version 1.4.1106 © […] RStudio, PBC, Boston, MA, USA) using the R package (version 4.1.2). The cytotoxicity index (IC50) was calculated by plotting dose–response curves using the “drc” package.

A-172 cells = experiment: MTT test, glioblastoma cells; type: cell-based, human; conditions: for Cytotoxicity index IC50 ± SE, A-172: MTT, 72 h incubation; for Selectivity ratio SR (A-172): normal/cancer cell (Hek-293 vs A-172)
Method: as §1, §2, §3, §4

Rd cells = experiment: MTT test, embryonic rhabdomyosarcoma cells; type: cell-based, human; conditions: for Cytotoxicity index IC50 ± SE, Rd: MTT, 72 h incubation; for Selectivity ratio SR (RD): normal/cancer cell (Hek-293 vs Rd)
Method: as §1, §2, §3, §4

Hek-293 cells = experiment: MTT test, human embryonic kidney cells; type: cell-based; conditions: 72 h incubation
Method: as §1, §2, §3, §4

[1] = dose-response study of CK2 inhibition
[2] = 50 μM compound, 10 μM ATP, n.a. = not active
[3] = dose-response study, 10 μM ATP, read-out: CK2 IC50

T1 sequence (P68400 whole entry): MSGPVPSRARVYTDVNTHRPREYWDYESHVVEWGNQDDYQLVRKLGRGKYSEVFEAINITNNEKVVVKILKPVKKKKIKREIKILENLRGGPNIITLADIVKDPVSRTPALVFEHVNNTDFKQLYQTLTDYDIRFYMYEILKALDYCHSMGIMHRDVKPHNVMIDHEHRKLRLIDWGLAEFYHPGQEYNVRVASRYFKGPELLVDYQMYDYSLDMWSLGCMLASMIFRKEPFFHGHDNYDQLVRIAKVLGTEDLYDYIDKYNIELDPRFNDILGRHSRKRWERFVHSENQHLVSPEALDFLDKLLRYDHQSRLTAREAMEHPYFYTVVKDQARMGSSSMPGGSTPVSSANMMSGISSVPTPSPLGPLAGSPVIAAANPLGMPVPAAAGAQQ

| Effect on CK2 activity in initial screening (in words) (human recombinant CK2α1) | IC50 (human recombinant CK2α1; [3]) [µM] | Molecule | Cytotoxicity index IC50 ± SE, Hos (Hos cells) [µM] | Selectivity ratio SR (HOS) (Hos cells) | Cytotoxicity index IC50 ± SE, A-172 (A-172 cells) [µM] | Selectivity ratio SR (A-172) (A-172 cells) | Cytotoxicity index IC50 ± SE, Rd (Rd cells) [µM] | Selectivity ratio SR (RD) (Rd cells) | Cytotoxicity index IC50 ± SE, Hek-293 (Hek-293 cells) [µM] | IC50 (human recombinant CK2α1) [µM] | CK2 inhibitory potency in dose-response study (in words) (human recombinant CK2α1; dose-response study) | Hill Coefficient (human recombinant CK2α1; [1]) | inhibition at 50 µM (human recombinant CK2α1) [%] | inhibition at 50 µM (human recombinant CK2α1; [2]) [%] | Hill Coefficient (human recombinant CK2α1) |
| --- | --- | --- | --- | --- | --- | --- | --- | --- | --- | --- | --- | --- | --- | --- | --- |
| paradoxically enhance CK2 activity |  | 3-Cyano-2-methylthio-6-nitro-7-(4ʹ-nitrophenyl)-4,7-dihydropyrazolo[1,5-a]pyrimidine [Compound 5o] | 28.09 ± 3.91 | 6 | 22.49 ± 2.93 | 7.5 | 36.33 ± 3.40 | 4.7 |  |  |  |  |  |  |  |
|  |  | CC1=C([N+](=O)[O-])C(c2cccs2)n2nccc2N1 (stereo not drawn) [Compound 5d, 6-Nitro-5-methyl-7-(thiophen-2ʹ-yl)-4,7-dihydropyrazolo[1,5-a]pyrimidine] | 103.53 ± 18.27 |  | 28.91 ± 4.58 |  | 105.54 ± 16.81 |  | 543.74 ± 70.79 |  |  |  |  |  |  |
|  |  | CCOC(=O)c1cnn2c1NC(CC)=C([N+](=O)[O-])C2c1ccccc1 (stereo not drawn) [Compound 5e, 3-Etoxycarbonyl-5-ethyl-6-nitro-7-phenyl-4,7-dihydropyrazolo[1,5-a]pyrimidine] | 126.60 ± 7.17 |  | 256.72 ± 12.20 |  | 99.46 ± 4.43 |  | 222.84 ± 6.33 |  |  |  |  |  |  |
| paradoxically enhance CK2 activity |  | N#Cc1cnn2c1NC=C([N+](=O)[O-])C2c1ccccc1 (stereo not drawn) [Compound 5g, 3-Cyano-6-nitro-7-phenyl-4,7-dihydropyrazolo[1,5-a]pyrimidine] | 181.14 ± 7.47 |  | 171.74 ± 8.63 |  | 149.72 ± 11.01 |  | 483.09 ± 37.61 |  |  |  |  |  |  |
| Moderate inhibition | 52.3 | CCC1=C([N+](=O)[O-])C(c2cccs2)n2ncc(C#N)c2N1 (stereo not drawn) [Compound 5k, 3-Cyano-5-ethyl-6-nitro-7-(thiophen-2-yl)-4,7-dihydropyrazolo[1,5-a]pyrimidine] | 77.32 ± 3.06 |  | 110.23 ± 2.97 |  | 89.43 ± 10.46 |  | 107.57 ± 11.10 |  | micromolar CK2 inhibitors | −1.183 |  | 66.8 ± 7.97 |  |
| Moderate inhibition | 57.2 | CSc1nn2c(c1C#N)NC=C([N+](=O)[O-])C2c1ccccc1 (stereo not drawn) [Compound 5l, 3-Cyano-2-methylthio-6-nitro-7-phenyl-4,7-dihydropyrazolo[1,5-a]pyrimidine] | 92.91 ± 3.91 |  | 77.79 ± 4.02 |  | 124.66 ± 6.80 |  | 162.30 ± 9.95 |  | micromolar CK2 inhibitors | −2.947 |  | 48.4 ± 4.48 |  |
| paradoxically enhance CK2 activity |  | CSc1nn2c(c1C#N)NC(C)=C([N+](=O)[O-])C2c1ccccc1 (stereo not drawn) [Compound 5m, 3-Cyano-5-methyl-2-methylthio-6-nitro-7-phenyl-4,7-dihydropyrazolo[1,5-a]pyrimidine] | 18.54 ± 1.79 | 11.4 | 13.36 ± 0.98 | 15.8 | 27.52 ± 2.77 | 7.7 |  |  |  |  |  |  |  |
|  |  | CCC1=C([N+](=O)[O-])C(c2ccc([N+](=O)[O-])cc2)n2nc(SC)c(C#N)c2N1 (stereo not drawn) [Compound 5n, 5-Ehtyl-3-cyano-2-methylthio-6-nitro-7-(4ʹ-nitrophenyl)-4,7-dihydropyrazolo[1,5-a]pyrimidine] | 112.26 ± 8.19 |  | 119.75 ± 8.49 |  | 151.44 ± 7.28 |  | 78.70 ± 9.75 |  |  |  |  | 19.8 ± 24.5 |  |
|  |  | CSc1nc2n(n1)C(c1ccccc1)C([N+](=O)[O-])=C(C)N2 (stereo not drawn) [Compound 6b, 5-Methyl-2-methylthio-6-nitro-7-phenyl-4,7-dihydro-1,2,4-triazolo[1,5-a]pyrimidine] | 92.03 ± 3.08 |  | 71.03 ± 2.07 |  | 110.11 ± 4.93 |  | 237.40 ± 11.99 |  |  |  |  |  |  |
|  |  | CN[C@@H]1C[C@H]2O[C@@](C)([C@@H]1OC)n1c3ccccc3c3c4c(c5c6ccccc6n2c5c31)C(=O)NC4 [Staurosporine, reference compound] |  |  |  |  |  |  |  |  |  |  | 72.3 ± 6.39 |  | −0.974 |
|  |  | N.N.[Cl][Pt][Cl] [cPt, Cisplatin, reference compound] | 2.36 ± 0.12 | 1.9 | 3.64 ± 0.21 | 1.2 | 4.99 ± 0.31 | 0.9 | 4.41 ± 0.24 |  |  |  |  |  |  |

| Molecule | Effect on CK2 activity in initial screening (in words) (human recombinant CK2α1) | IC50 (human recombinant CK2α1; [3]) [µM] | Cytotoxicity index IC50 ± SE, Hos (Hos cells) [µM] | Selectivity ratio SR (HOS) (Hos cells) | Cytotoxicity index IC50 ± SE, A-172 (A-172 cells) [µM] | Selectivity ratio SR (A-172) (A-172 cells) | Cytotoxicity index IC50 ± SE, Rd (Rd cells) [µM] | Selectivity ratio SR (RD) (Rd cells) | Cytotoxicity index IC50 ± SE, Hek-293 (Hek-293 cells) [µM] | IC50 (human recombinant CK2α1) [µM] | CK2 inhibitory potency in dose-response study (in words) (human recombinant CK2α1; dose-response study) | Hill Coefficient (human recombinant CK2α1; [1]) | inhibition at 50 µM (human recombinant CK2α1) [%] | inhibition at 50 µM (human recombinant CK2α1; [2]) [%] | Hill Coefficient (human recombinant CK2α1) |
| --- | --- | --- | --- | --- | --- | --- | --- | --- | --- | --- | --- | --- | --- | --- | --- |
| 5-Methyl-2-methylthio-6-nitro-7-(4ʹ-nitrophenyl)-4,7-dihydro-1,2,4-triazolo[1,5-a]pyrimidine [Compound 6c] | paradoxically enhance CK2 activity |  | 40.88 ± 4.11 | 5.6 | 41.27 ± 4.10 | 5.5 | 71.15 ± 6.84 | 3.2 |  |  |  |  |  |  |  |
| CCOC(=O)c1cnn2c1NC(CC)=C([N+](=O)[O-])C2c1ccc([N+](=O)[O-])cc1 (stereo not drawn) [Compound 5f, 3-Etoxycarbonyl-5-ethyl-6-nitro-7-(4ʹ-nitrophenyl)-4,7-dihydropyrazolo[1,5-a]pyrimidine] | Moderate inhibition |  | 170.14 ± 11.16 |  | 212.36 ± 42.85 |  | 121.97 ± 13.53 |  | 35.86 ± 4.30 | 52.8 | micromolar CK2 inhibitors | −1.369 | 53.81 ± 0.42 |  |  |
| CCC1=C([N+](=O)[O-])C(c2ccc([N+](=O)[O-])cc2)n2ncc(C#N)c2N1 (stereo not drawn) [Compound 5h, 3-Cyano-5-ehtyl-6-Nitro-7-(4ʹ-nitrophenyl)-4,7-dihydropyrazolo[1,5-a]pyrimidine] | Moderate inhibition |  | 234.97 ± 25.80 |  | 323.41 ± 22.70 |  | 378.59 ± 20.39 |  | 153.47 ± 12.35 | 59.5 | micromolar CK2 inhibitors | −1.566 | 54.8 ± 0.87 |  |  |
| CCC1=C([N+](=O)[O-])C(c2ccc([N+](=O)[O-])cc2)n2nc(C(F)(F)F)nc2N1 (stereo not drawn) [Compound 6e] | Moderate inhibition | > 100 | 93.72 ± 5.89 |  | 82.44 ± 2.22 |  | 192.69 ± 10.27 |  | 54.16 ± 5.32 |  | low potency |  |  | 39.8 ± 19.5 |  |
